From US11160272B2, “Methods for preserving tissue with medical grade honey” (TRITICUM EXPLOITATIE B.V., priority 2017, dated 2021)

System: bovine ovarian cortex tissue
Assay: Endothelial cell density (Factor VIII immunolocalization) in cultured ovarian cortex tissue
Format: cell-based
Conditions: treatment mean over 0 h, 4 h, 24 h, 48 h; L-Mesitran 0.2%, VEGF 50 ng.mL-1; in vitro culture TCM-199 with 10% cow serum
Source text: Four mature crossbred beef cows (12 months of age) were used for this study. […] The 0.2% v/v concentration (L-Mesitran) was chosen according to the highest reported pro-angiogenic effect for this medical grade honey in an in vitro tissue culture. The ovarian cortex endothelial immunolocalization was quantified using Factor VIII [9] R Ag. Rabbit Polyclonal Antibody (ref 760-2642; BenchMark ULTRA IHC/ISH Module staining protocol; Ventana Medical Systems, Inc.; Roche, USA) at concentrations of 2.26 µg/ml, and Fiji software for the digital analysis, after 0 h, 4 h, 24 h and 48 h in each of the mentioned 4 groups. Cellular cytotoxicity (quantitation of lactate dehydrogenase, LDH [11], in cell culture supernatant) was also evaluated in the same mentioned time periods (CytoTox 96® Non-Radioactive Cytotoxicity Assay G1782, Promega GloMax Multi Detection System).
Data from ovarian cortex tissue endothelial density (immunohistochemistry data) and LDH quantification in cell culture supernatant, were analysed using the proc glimmix of SAS (Statistical Analysis Systems, SAS Inst., Inc., Cary, N.C., USA). The models included treatments and hours as fixed effects, and animal (cow) as random (co-variable) effect. The means of each treatment/hours were calculated and compared by the PDIFF multiple comparison test. The differences were considered significant for P≤0.05.

VEGF
Endothelial cell density (Factor VIII immunolocalization), treatment effect: 0.2942±0.1486
